Assay results as given in patent US20210198277A1, “AMINE-SUBSTITUTED ARYL OR HETEROARYL COMPOUNDS” (Epizyme, Inc., priority 2016, published 2021).

The molecules below were run against T1, EHMT2 (Homo sapiens, UniProt Q96KQ7) (assay: MDA-MB-231 H3K9me2 in-cell Western assay (EHMT2 ICW)). Conditions: Table VI; read-out: EHMT2 ICW IC50.
T1 construct: host or cells: MDA-MB-231
T1 sequence (Q96KQ7 1-1210): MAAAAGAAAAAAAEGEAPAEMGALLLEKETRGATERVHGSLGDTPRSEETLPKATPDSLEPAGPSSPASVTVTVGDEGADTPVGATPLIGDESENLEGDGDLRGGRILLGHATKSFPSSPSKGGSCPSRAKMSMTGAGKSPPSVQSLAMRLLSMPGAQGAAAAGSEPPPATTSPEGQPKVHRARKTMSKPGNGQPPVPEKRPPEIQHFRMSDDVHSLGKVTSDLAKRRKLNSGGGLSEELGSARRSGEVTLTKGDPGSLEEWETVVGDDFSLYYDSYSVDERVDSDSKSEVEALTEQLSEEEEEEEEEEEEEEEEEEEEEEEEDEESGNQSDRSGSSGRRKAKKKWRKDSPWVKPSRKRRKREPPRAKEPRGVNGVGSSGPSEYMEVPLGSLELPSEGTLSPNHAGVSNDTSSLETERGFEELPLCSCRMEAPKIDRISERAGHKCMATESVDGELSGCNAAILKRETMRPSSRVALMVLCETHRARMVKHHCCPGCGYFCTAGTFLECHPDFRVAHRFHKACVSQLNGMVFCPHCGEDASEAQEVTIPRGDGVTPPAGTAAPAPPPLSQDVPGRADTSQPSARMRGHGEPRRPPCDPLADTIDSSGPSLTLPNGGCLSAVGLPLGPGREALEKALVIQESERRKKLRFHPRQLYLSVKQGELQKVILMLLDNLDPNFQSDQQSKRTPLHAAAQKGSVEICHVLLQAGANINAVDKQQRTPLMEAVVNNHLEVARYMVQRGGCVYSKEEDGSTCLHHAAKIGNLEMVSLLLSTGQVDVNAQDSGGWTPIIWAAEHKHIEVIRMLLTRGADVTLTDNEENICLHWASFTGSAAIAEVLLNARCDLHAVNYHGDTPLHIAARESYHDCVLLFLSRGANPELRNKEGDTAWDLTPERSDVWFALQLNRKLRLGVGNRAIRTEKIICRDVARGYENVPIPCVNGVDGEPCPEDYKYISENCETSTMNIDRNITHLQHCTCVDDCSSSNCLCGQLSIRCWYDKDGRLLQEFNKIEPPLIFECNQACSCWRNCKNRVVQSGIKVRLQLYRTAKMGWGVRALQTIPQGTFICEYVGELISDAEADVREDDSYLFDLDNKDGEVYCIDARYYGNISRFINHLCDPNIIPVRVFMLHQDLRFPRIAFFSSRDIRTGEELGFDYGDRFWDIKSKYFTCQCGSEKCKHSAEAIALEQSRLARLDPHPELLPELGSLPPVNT
Format: cell-based
Outline: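 Infrared read-out at 800 and 700 nm (H3K9me2 antibody vs DRAQ5 DNA stain) of fixed MDA-MB-231 cells after 48 h compound treatment at 37 °C. Well ratios were converted to percent inhibition, and IC50 was obtained by variable-slope nonlinear regression on triplicates.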

SMILES | IC50 [µM]
CNc1cc(C)nc(Nc2cc(OCCCN3CCCC3)n3cnnc3c2)n1 [Compound 628] | > 10
COc1cc(NC2CCNCC2)ncc1OCC1CCNC1 (centres unmarked) [Compound 629] | > 10
COc1cnc(NC(=O)/C=C/CN(C)C)cc1OCCCN1CCCC1 [Compound 640] | > 10

Now from value to molecule:

IC50 [µM] | SMILES
> 10 | COc1cc2c(C3CCN(C(C)C)CC3)nc(C)nc2cc1OCCCN1CCCC1 [Compound 659]
0.1 to 1 | CNc1cc(C)nc(Nc2cnc(OC)c(OC[C@@H]3CCNC3)c2)n1 [Compound 641]
1 to 10 | CNc1cc(C)nc(Nc2ccc(OC)c(CN(C)CCN3CCCC3)c2)n1 [Compound 645]
0.1 to 1 | CCN1CC[C@@H](COc2cc3nc(C)cc(C4CCN(C(C)C)CC4)c3cc2OC)C1 [Compound 663]
0.1 to 1 | CCN1CC[C@@H](COc2cc(Nc3nc(NC)cc(C(C)C)n3)ccc2OC)C1 [Compound 672]
